Results from US20240173312A1, “Pharmaceutical Composition Comprising a Benzoheterocyclic Compound and Androgen Receptor Pathway Modulator and Application Thereof” (KANGPU BIOPHARMACEUTICALS, LTD., priority 2015, published 2024).
Where two headings read alike, the source gives them in different places.

Key:
[1] = tested on: Vcap cells (androgen receptor (+) prostate cancer cells)
Procedure: (§1) In vitro test of the inhibition effect of the compound in combination with androgen receptor pathway modulators and the like on the prostate cancer cell proliferation.
(§2) The tested compounds were used alone or in combination with other androgen receptor pathway modulators respectively. […] After that, 100 μl of CellTiter-Glo® cell viability assay reagent (Promega, catalogue number G7570) was added to each well and mixed well on a vibrator for 10 minutes to induce cell lysis. The 96-well plate was placed at room temperature for 10 minutes, so as to stabilize its luminescence signal. A white bottom membrane was pasted on the bottom of the plate and the plate was tested using EnSpire.

[2] = tested on: Vcap cells (androgen receptor (+) prostate cancer cells); assay: CTG cell proliferation assay (CellTiter-Glo)
Procedure: as §1, §2

[3] = Homo sapiens, VCaP, 120 h, read-out: Survival rate of Vcap cells, Table 3, tested compound alone
[4] = Homo sapiens, VCaP, 120 h, read-out: Survival rate of Vcap cells, Table 4, tested compound alone
[5] = Homo sapiens, VCaP, 120 h, read-out: Survival rate of Vcap cells, Table 5, tested compound alone
[6] = Homo sapiens, VCaP, 120 h, read-out: Survival rate of Vcap cells, Table 9, tested compound alone
[7] = Homo sapiens, VCaP, 120 h, read-out: Survival rate of Vcap cells, Table 10, tested compound alone
[8] = Homo sapiens, VCaP, 120 h, read-out: Vcap cell proliferation inhibition rate

Nc1cccc2c1CN(C1CCC(=O)NC1=O)C2=O (stereo not shown) [B001]
inhibition [1]: 21.4%
viability at 0.1 µM [2, 3]: 92%
viability at 1 µM ([2]; Homo sapiens, VCaP, 120 h, read-out: Survival rate of Vcap cells, Table 3, tested compound alone, 1.0 μM): 82.8%
viability at 10 µM [2, 3]: 81.9%
viability at 0.1 µM [2, 4]: 92%
viability at 1 µM ([2]; Homo sapiens, VCaP, 120 h, read-out: Survival rate of Vcap cells, Table 4, tested compound alone, 1 μM): 82.8%
viability at 10 µM [2, 4]: 81.9%
viability at 0.1 µM [2, 5]: 87.7%
viability at 1 µM ([2]; Homo sapiens, VCaP, 120 h, read-out: Survival rate of Vcap cells, Table 5, tested compound alone, 1.0 μM): 75.3%
viability at 10 µM [2, 5]: 72.3%
viability at 0.1 µM [2, 6]: 83.9%
viability at 1 µM ([2]; Homo sapiens, VCaP, 120 h, read-out: Survival rate of Vcap cells, Table 9, tested compound alone, 1.0 μM): 74.8%
viability at 10 µM [2, 6]: 69.1%
viability at 0.1 µM [2, 7]: 83.9%
viability at 1 µM ([2]; Homo sapiens, VCaP, 120 h, read-out: Survival rate of Vcap cells, Table 10, tested compound alone, 1.0 μM): 74.7%
viability at 10 µM [2, 7]: 69.1%
inhibition at 0.41 µM [2, 8]: 18.7%
inhibition at 1.23 µM [2, 8]: 20.7%
inhibition at 11.11 µM [2, 8]: 20.9%
inhibition at 33.33 µM [2, 8]: 22%
inhibition at 100 µM [2, 8]: 19.6%
Survival rate of Vcap cells ([2]; Table 3, tested compound 0.1 μM in combination with 1 μM ARN-509): 42.0%
Survival rate of Vcap cells ([2]; Table 3, tested compound 0.1 μM in combination with 1 μM Enzalutamide): 40.3%
Survival rate of Vcap cells ([2]; Table 3, tested compound 1.0 μM in combination with 1 μM ARN-509): 34.7%
Survival rate of Vcap cells ([2]; Table 3, tested compound 1.0 μM in combination with 1 μM Enzalutamide): 35.6%
Survival rate of Vcap cells ([2]; Table 3, tested compound 10 μM in combination with 1 μM ARN-509): 33.5%
Survival rate of Vcap cells ([2]; Table 3, tested compound 10 μM in combination with 1 μM Enzalutamide): 33.7%
Survival rate of Vcap cells ([2]; Table 3, tested compound alone, 1.0 μM): 82.8%
Survival rate of Vcap cells ([2]; Table 4, tested compound 0.1 μM in combination with 1 μM Abiraterone acetate): 78.5%
Survival rate of Vcap cells ([2]; Table 4, tested compound 0.1 μM in combination with 1 μM Galeterone): 51.1%
Survival rate of Vcap cells ([2]; Table 4, tested compound 1 μM in combination with 1 μM Abiraterone acetate): 68.0%
Survival rate of Vcap cells ([2]; Table 4, tested compound 1 μM in combination with 1 μM Galeterone): 43.3%
Survival rate of Vcap cells ([2]; Table 4, tested compound 10 μM in combination with 1 μM Abiraterone acetate): 62.9%
Survival rate of Vcap cells ([2]; Table 4, tested compound 10 μM in combination with 1 μM Galeterone): 42.8%
Survival rate of Vcap cells ([2]; Table 4, tested compound alone, 1 μM): 82.8%
Survival rate of Vcap cells ([2]; Table 5, tested compound 0.1 μM in combination with 1 μM ODM-201): 52.7%
Survival rate of Vcap cells ([2]; Table 5, tested compound 1.0 μM in combination with 1 μM ODM-201): 41.4%
Survival rate of Vcap cells ([2]; Table 5, tested compound 10 μM in combination with 1 μM ODM-201): 37.5%
Survival rate of Vcap cells ([2]; Table 5, tested compound alone, 1.0 μM): 75.3%
Survival rate of Vcap cells ([2]; Table 9, tested compound 0.1 μM in combination with 1 μM ARN-509): 50.9%
Survival rate of Vcap cells ([2]; Table 9, tested compound 0.1 μM in combination with 1 μM Enzalutamide): 52.1%
Survival rate of Vcap cells ([2]; Table 9, tested compound 1.0 μM in combination with 1 μM ARN-509): 42.6%
Survival rate of Vcap cells ([2]; Table 9, tested compound 1.0 μM in combination with 1 μM Enzalutamide): 42.3%
Survival rate of Vcap cells ([2]; Table 9, tested compound 10 μM in combination with 1 μM ARN-509): 40.9%
Survival rate of Vcap cells ([2]; Table 9, tested compound 10 μM in combination with 1 μM Enzalutamide): 38.4%
Cell survival rate ([2]; notes of Table 9: 1.0 μM tested compound in combination with 1.0 μM Enzalutamide): 42.6%
